In patent publication US11013745B2, “Triazolopyrimidine, triazolopyridine compounds, and the composition thereof for treating PRC2-mediated diseases” (SHANGHAI INSTITUTE OF MATERIA MEDICA, CHINESE ACADEMY OF …, priority 2017, dated 2021):
Like-named read-outs stand apart in the source and are kept apart here.

What was measured:
[1] = system: Pfeiffer cells; assay: Growth inhibition of Pfeiffer cells in a long term (14 days), CellTiter-Glo; assay type: cell-based, Human; conditions: Homo sapiens, 336 h, read-out: Pfeiffer (14 days) IC50
Description: In a CO2 cell incubator (37° C., 5% CO2), Human diffuse large B-cell lymphoma (DLBCL) cell line, pfeiffer (obtained from ATCC, CRL-2632) were incubated with RPMI 1640 medium (Gibco, purchased from Life Technologies, 22400-089) containing 10% fetal bovine serum (Gibco, purchased from Life Technologies, 10099-141) and 1% antibiotics (penicillin and streptomycin, purchased from Life Technologies, 10378016). […] After seeding the cells, they were placed in a CO2 incubator and allowed to stand for 1 hour. In a 24-well plate containing cells, 2 μL of three-fold gradient of the compounds at 9 different concentrations or DMSO were added to each well, such that the final concentration of the compounds was 0.003-20 μM or 0.3-2000 nM, and the final concentration of DMSO was 0.2%. At day 4, day 7, and day 11 of compound treatment, the fresh medium and compounds were changed, and the cell density of the DMSO control well was diluted to 2*10E5 cells/mL. The cell dilution ratio for other compound wells was the same as that of the DMSO control well. Cell viability was determined by using CellTiter-Glo reagent (purchased from Promega Inc., G7572): cells treated with the compounds for 14 days were transferred to a white 384-well plate (OptiPlate-384, purchased from PerkinElmer, 6007299) at 40 μL/well, an equal volume of CellTiter-Glo reagent was further added. After incubating at room temperature for 10 min, the cold luminescence signal was detected with a multifunctional microplate reader EnVision (PerkinElmer) at a wavelength of 400 to 700 nm. Data were analyzed using GraphPad Prism 5.0 software, and IC50 values were obtained.

[2] = system: Pfeiffer cells; assay: Pfeiffer cell growth inhibition in a long term (11 days), CellTiter-Glo; assay type: cell-based, Human; conditions: Homo sapiens, 264 h, read-out: Experiment on Pfeiffer cell growth inhibition in a long term (11 days IC50)
In short: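 Exponentially growing cells seeded at 1*10E5 cells/mL and treated the same day with a concentration range. Media and compound were refreshed at days 4 and 7. Viability was read by CellTiter-Glo after 11 days and GI50 values were derived.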

[3] = Oral pharmacokinetics in rats; assay type: in vivo; conditions: male, SD, plasma, rat, intragastric, 3 mg/kg; for AUC(0-inf): extrapolated to infinity, read-out: AUCINF_obs; for MRT inf: read-out: Average residence time MRTINF_obs; for half-life: read-out: Half life T1/2 (converted); for Cmax: read-out: Peak concentration Cmax
Description: 1. Healthy male SD rats were used as test animals, EED226, […]-07 (3 mg/kg) were administered intragastrically, and the drug concentrations in rat plasma were determined by LC/MS/MS method at different time points after drug administration. The pharmacokinetic behavior of the compounds of the present invention in rats was studied, and the pharmacokinetic properties were evaluated. 2. The test animals were healthy adult male SD rats, with 3 rats in each group, purchased from Shanghai Xipuer-Bikai Laboratory Animal Limited Company. 3. Drug preparation: Compounds EED226, […] were dissolved in DMSO/0.5% HPMC (5/95, v/v) for preparation. The compound SL-ZYE-07 was dissolved in 0.5% HPMC (containing 0.5% Tween 80), vortexed, and sonicated to disperse the solid matter uniformly to obtain a pale white suspension. 4, Operation: EED226, […]-07 were administered to rats by intragastric administration (3 mg/kg), 45 μL of blood was taken through the femoral vein at 0.25, 0.5, 1, 2, 4, 8, 24 hour after administration, and centrifuged in a heparinized centrifuge tube for 5 min, and the plasma samples were separated for analysis. The contents of test compounds in rat plasma after intragastric administration of different compounds were determined by Liquid chromatography-mass spectrometry (LC-MS/MS).

[4] = system: Karpas-422 cells; assay: Growth inhibition of Karpas-422 cells in a long term (11 days), CellTiter-Glo; assay type: cell-based, Human; conditions: Homo sapiens, read-out: Karpas-422 (11 days) IC50
[5] = Liver microsomal stability (mouse); assay type: in vitro ADME
[6] = Liver microsomal stability (rat); assay type: in vitro ADME
In short: (§1)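 Human, mouse and rat liver microsomes were incubated with NADPH and MgCl2 in 0.1 M Tris pH 7.4, with compound at a 0.2 μM working solution. Remaining compound was quantified by LC/MS over the incubation time. The slope of log remaining versus time gave Clint, which was scaled to predicted Cl, Clhep and % MF.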

[7] = system: SU-DHL-4 cells; assay: Growth inhibition of SU-DHL-4 cells in a long term (11 days), CellTiter-Glo; assay type: cell-based, Human; conditions: Homo sapiens, read-out: SU-DHL-4 (11 days) IC50
[8] = Liver microsomal stability (human); assay type: in vitro ADME
In short: as §1

[9] = molecular target: PRC2 enzyme (Homo sapiens (Human), UniProt O75530); assay: PRC2 enzyme activity, TR-FRET method; assay type: biochemical
In short: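 Enzyme preincubated with compound 30 min at room temperature; reaction started with biotin-labeled histone H3 peptide and SAM, run 4 h at room temperature.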

Chain of PRC2 enzyme (O75530 whole entry): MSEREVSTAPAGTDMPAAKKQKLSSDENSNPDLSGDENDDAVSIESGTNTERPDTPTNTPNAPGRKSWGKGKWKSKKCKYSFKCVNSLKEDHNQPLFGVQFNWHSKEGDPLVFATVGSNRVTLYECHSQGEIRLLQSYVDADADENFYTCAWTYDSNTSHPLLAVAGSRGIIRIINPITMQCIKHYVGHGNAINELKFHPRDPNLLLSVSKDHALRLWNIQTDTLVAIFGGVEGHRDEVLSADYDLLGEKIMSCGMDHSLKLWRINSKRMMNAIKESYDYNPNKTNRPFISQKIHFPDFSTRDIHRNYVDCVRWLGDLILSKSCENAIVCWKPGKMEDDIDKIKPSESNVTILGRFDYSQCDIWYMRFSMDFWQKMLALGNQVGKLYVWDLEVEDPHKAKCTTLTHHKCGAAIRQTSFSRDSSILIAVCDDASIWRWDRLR
Chain of PRC2 enzyme (Q15910 whole entry partner): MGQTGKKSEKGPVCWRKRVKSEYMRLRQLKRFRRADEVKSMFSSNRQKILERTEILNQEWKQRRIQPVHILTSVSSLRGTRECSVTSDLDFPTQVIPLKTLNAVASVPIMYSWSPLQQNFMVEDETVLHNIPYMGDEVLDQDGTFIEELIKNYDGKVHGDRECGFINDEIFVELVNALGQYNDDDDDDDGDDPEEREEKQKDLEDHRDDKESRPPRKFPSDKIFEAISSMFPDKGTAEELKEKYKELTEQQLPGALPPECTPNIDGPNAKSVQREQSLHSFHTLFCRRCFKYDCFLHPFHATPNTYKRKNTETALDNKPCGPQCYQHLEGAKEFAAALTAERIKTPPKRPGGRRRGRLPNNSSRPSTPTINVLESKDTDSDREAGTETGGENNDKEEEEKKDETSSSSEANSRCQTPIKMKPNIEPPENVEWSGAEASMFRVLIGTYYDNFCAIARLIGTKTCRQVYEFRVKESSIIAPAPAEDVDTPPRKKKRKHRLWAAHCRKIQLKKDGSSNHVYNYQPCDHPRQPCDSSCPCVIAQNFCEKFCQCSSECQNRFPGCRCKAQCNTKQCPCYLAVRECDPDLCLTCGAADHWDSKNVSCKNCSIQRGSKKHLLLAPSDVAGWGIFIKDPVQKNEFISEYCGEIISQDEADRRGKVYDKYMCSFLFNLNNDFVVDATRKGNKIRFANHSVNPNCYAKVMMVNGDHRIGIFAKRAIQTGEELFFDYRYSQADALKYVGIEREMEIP
Chain of PRC2 enzyme (Q15022 whole entry partner): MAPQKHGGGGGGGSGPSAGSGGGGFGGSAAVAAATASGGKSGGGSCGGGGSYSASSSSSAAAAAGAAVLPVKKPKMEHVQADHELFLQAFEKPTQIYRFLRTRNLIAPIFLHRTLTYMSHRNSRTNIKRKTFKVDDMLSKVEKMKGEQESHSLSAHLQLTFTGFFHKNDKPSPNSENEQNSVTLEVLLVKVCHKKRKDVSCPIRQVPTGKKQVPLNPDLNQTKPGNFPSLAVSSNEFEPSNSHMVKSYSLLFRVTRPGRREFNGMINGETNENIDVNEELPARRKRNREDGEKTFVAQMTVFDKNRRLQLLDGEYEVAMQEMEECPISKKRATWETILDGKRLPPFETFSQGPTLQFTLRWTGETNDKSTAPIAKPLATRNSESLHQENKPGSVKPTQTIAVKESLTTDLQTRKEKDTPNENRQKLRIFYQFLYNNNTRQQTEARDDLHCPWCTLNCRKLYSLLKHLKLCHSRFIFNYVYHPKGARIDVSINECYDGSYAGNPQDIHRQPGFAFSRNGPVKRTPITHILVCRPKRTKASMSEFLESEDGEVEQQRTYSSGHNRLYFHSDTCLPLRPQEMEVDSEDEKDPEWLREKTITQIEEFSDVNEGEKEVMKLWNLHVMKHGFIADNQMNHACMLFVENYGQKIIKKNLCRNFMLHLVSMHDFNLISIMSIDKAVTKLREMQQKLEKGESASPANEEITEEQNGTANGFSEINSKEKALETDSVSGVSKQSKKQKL

SMILES: Fc1ccc2c(c1CNc1ncc(C3=CCOCC3)c3nncn13)CCO2 [E-Y1]
- IC50 ([1]; 14 days): 0.004 µM
- IC50 ([2]; 11 days): 0.008 µM
- AUC(0-t) [3]: 2200 ± 237 ng·h/mL
- AUC(0-inf) [3]: 2200 ± 239 ng·h/mL
- MRT inf [3]: 5.46 ± 0.342 h
- half-life [3]: 2.32 ± 0.268 h
- Cmax [3]: 302 ± 6.4 ng/mL
- IC50 ([4]; 264 h, Karpas-422, 11 days): 0.019 µM
- Clearance rate in vivo Clint In Vivo Extpl ([5]; mouse liver microsomes): 1.98 mL/min
- Intrinsic clearance rate in vivo Clint In Vitro ([5]; mouse liver microsomes): 29.4 mL/min/gprot
- Liver clearance rate Clint Hep In Vivo Extpl ([5]; mouse liver microsomes): 1.19 mL/min
- Metabolic bioavailability MF % ([5]; mouse liver microsomes): 60.2%
- half-life ([5]; mouse, liver microsomes, pH 7.4, mouse liver microsomes, read-out: Half life T-half): 1.19 h
- Clearance rate in vivo Clint In Vivo Extpl ([6]; rat liver microsomes): 15.9 mL/min
- Intrinsic clearance rate in vivo Clint In Vitro ([6]; rat liver microsomes): 35.2 mL/min/gprot
- Liver clearance rate Clint Hep In Vivo Extpl ([6]; rat liver microsomes): 8.85 mL/min
- Metabolic bioavailability MF % ([6]; rat liver microsomes): 55.8%
- half-life ([6]; rat, liver microsomes, pH 7.4, rat liver microsomes, read-out: Half life T-half): 0.993 h
- IC50 ([7]; 264 h, SU-DHL-4, 11 days): 0.004 µM
- Clearance rate in vivo Clint In Vivo Extpl ([8]; human liver microsomes): 1613 mL/min
- Intrinsic clearance rate in vivo Clint In Vitro ([8]; human liver microsomes): 21.1 mL/min/gprot
- Liver clearance rate Clint Hep In Vivo Extpl ([8]; human liver microsomes): 777 mL/min
- half-life ([8]; human, liver microsomes, pH 7.4, human liver microsomes, read-out: Half life T-half): 1.66 h
- bioavailability ([8]; human, liver microsomes, pH 7.4, human liver microsomes, read-out: Metabolic bioavailability MF %): 48.2%

SMILES: CS(=O)(=O)c1ccc(-c2cnc(NCc3ccco3)n3cnnc23)cc1 [EED226, reference compound]
- IC50 [1]: 0.044 µM
- IC50 [2]: 0.052 µM
- AUC(0-t) [3]: 886 ± 336 ng·h/mL
- AUC(0-inf) [3]: 915 ± 316 ng·h/mL
- MRT inf [3]: 2.55 ± 1.08 h
- half-life [3]: 1.63 ± 0.411 h
- Cmax [3]: 464 ± 429 ng/mL
- IC50 ([4]; KARPAS-422, 264 h): 0.167 µM
- IC50 ([7]; SU-DHL-4, 264 h): 0.095 µM
- IC50 [9]: 0.104 µM
